Converted amounts (≈) assume the structure as drawn. A value given as a limit tells only on which side of the number the result lay.

The term solubility (kinetic) denotes solubility judged after dilution from a stock solution rather than from solid.

The conditions of this series: buffer; pH 7.4; 200.0 µM.
On to `COc1ccc(NCC(=O)N/N=C/C(C)c2ccccc2)cc1` (stereo unspecified), for which the kinetic solubility was > 46.7 µg/mL. The result for `CCN(CC)S(=O)(=O)c1cccc(NC(=O)CC2CCCC2)c1` reads 33 µg/mL (≈ 97.5 µM); that for `N#C/C(=C\Nc1ccc(F)c(Cl)c1)S(=O)(=O)c1ccccn1`, 42 µg/mL (≈ 124 µM); that for `CC(NC(=O)CN1CCN(c2cccc(Cl)c2)CC1)c1ccccc1` (stereo unspecified), 42.4 µg/mL (≈ 118 µM).

Take `Cc1ccc(-c2csc(NC(=O)CN3CCOCC3)n2)cc1`: the kinetic solubility was > 47.6 µg/mL. Then `COc1ccccc1NC(=S)N1CCn2cccc2C1c1cccnc1` (stereo unspecified), with 42.2 µg/mL (≈ 116 µM).

Molecule `COc1ccc(OC)c(NC(=O)COC(=O)CC2CCCCC2)c1` showed a solubility (kinetic) of 19 µg/mL (≈ 56.6 µM). This solubility kinetic is about 2.2-fold lower than that of the molecule before.

For `CCOC(=O)CC1COCCN1Cc1cn(C)nc1-c1ccccc1F` (stereo unspecified), the kinetic solubility was > 54.2 µg/mL. The result for `N#Cc1ccccc1COC(=O)c1cc(=O)c2ccccc2o1` reads 16.7 µg/mL (≈ 54.7 µM). For the molecule `CCOc1ccc(NC(=O)c2ccc(Cl)c(NC(=O)c3ccco3)c2)cc1`, the solubility (kinetic) is < 0.4 µg/mL. `CC1CCCCC1NC(=O)COC(=O)/C=C/c1ccco1` (stereo unspecified): the kinetic solubility worked out at 22.6 µg/mL (≈ 77.6 µM). With `CN(C(=O)/C=C/c1cnc2ccccc2c1)C1CCCCC1`, the kinetic solubility was > 44.2 µg/mL. The molecule `Clc1cccc(CNCC2CCCO2)c1Cl` (stereo unspecified) gave a solubility (kinetic) of 33.3 µg/mL (≈ 128 µM). `CC(C)(C)C(=O)NC1CCSC1=O` (stereo unspecified): the solubility (kinetic) is > 30.2 µg/mL.

With `CCOC(=O)c1c(C)oc2c1c(C=NCCC(=O)O)c(O)c1ccccc12`, the kinetic solubility is < 0.8 µg/mL. Then `O=C(OCC(=O)N1CCN(c2ccccc2)CC1)c1ccncc1`, with > 48.8 µg/mL; and `O=C(COC(=O)c1ccc(S(=O)(=O)N2CCCCC2)cc1)NCc1ccccc1`, with 3.6 µg/mL (≈ 8.64 µM). Then `Cc1ccc(Oc2ccc(OCC(=O)NC3CCS(=O)(=O)C3)cc2)cc1` (stereo unspecified), with 7.6 µg/mL (≈ 20.2 µM); and `COC(=O)c1c(C)[nH]c(C(=O)C(C)OC(=O)c2cnc(C)cn2)c1C` (stereo unspecified), with 49.2 µg/mL (≈ 142 µM); and `CCc1nc2ccccc2c(C(=O)OCC(=O)N(C)Cc2ccccc2)c1C`, with 4.9 µg/mL (≈ 13 µM). The result for `O=c1cc(C(F)(F)F)nc(-c2ccccc2OC(F)(F)F)[nH]1` reads > 48.6 µg/mL; that for `COc1ccc(CCNC(=O)c2cc(=O)[nH]c3ccccc23)cc1`, 1.9 µg/mL (≈ 5.89 µM); that for `O=C(CNC(=O)c1ccccc1)OCC(=O)c1c[nH]c2ccccc12`, 18.6 µg/mL (≈ 55.3 µM). Take `Cc1ccc(F)cc1NC(=O)c1cnccn1`: the kinetic solubility is > 34.7 µg/mL. As for `NC(=O)NC(=O)COC(=O)/C=C/c1cccs1`, the solubility (kinetic) was determined as 10.4 µg/mL (≈ 40.9 µM). The molecule `O=C(c1ccc2nc(Cc3ccccc3F)oc2c1)N1CCCC1` came in with a solubility (kinetic) of 33.5 µg/mL (≈ 103 µM). This solubility kinetic lies about 3.2-fold higher than the previous one.

On to `Cc1noc(C)c1C(=O)NCCc1ccc(S(N)(=O)=O)cc1`, for which the kinetic solubility was > 48.5 µg/mL. The result for `Cc1ccc(C(=O)O/N=C(\N)c2ccc(C(F)(F)F)cn2)cc1` reads < 0.2 µg/mL; that for `COc1ccc(Cn2cnc([N+](=O)[O-])c2)cc1[N+](=O)[O-]`, > 41.7 µg/mL; that for `Cc1ccc(NC(=O)C2CC2)cc1S(=O)(=O)N1CCOCC1`, > 48.7 µg/mL. Take `COc1ccc(/C=C2\N=C3CCCN3C2=O)cc1`: the solubility (kinetic) was > 36.3 µg/mL. Take `CCN1CCN(c2nc3ccccn3c(=O)c2C=O)CC1`: the solubility (kinetic) is > 42.9 µg/mL. Turning to `O=C(c1ccc2nc[nH]c2c1)N1CCN(c2cccc(Cl)c2)CC1`, the kinetic solubility was 42.7 µg/mL (≈ 125 µM). For `CC(NS(=O)(=O)c1ccc(Cl)c(Cl)c1)C(=O)Nc1cccnc1` (stereo unspecified), the solubility (kinetic) was > 56.1 µg/mL. As for `CCOCc1[nH]c(=S)[nH]c(=O)c1Cc1ccc(OC(C)C)cc1`, the kinetic solubility was > 50.2 µg/mL. The result for `COc1cc(NC(=O)CCCN2C(=O)NC(C)(C)C2=O)cc(OC)c1` reads 49.6 µg/mL (≈ 142 µM); that for `COC(=O)Cn1cc(C(=O)C(F)(F)F)c2ccccc21`, 13.2 µg/mL (≈ 46.3 µM); that for `O=C(O)CCNC(=O)C12CC3CC(CC(C3)C1)C2`, > 37.7 µg/mL.

In turn, `CC(=O)c1cccc(NC(=S)NCc2ccccc2)c1` had a solubility (kinetic) of 6.4 µg/mL (≈ 22.5 µM). The result for `CC1CCCC(C)N1C(=O)COC(=O)c1ccc(S(=O)(=O)N(C)c2ccccc2)cc1` (stereo unspecified) reads 6.9 µg/mL (≈ 15.5 µM). Then `CC(NC(=O)c1cc2ccccc2o1)c1ccccc1` (stereo unspecified), with 37.6 µg/mL (≈ 142 µM). The molecule `CCc1cccc(C)c1NC(=O)CN1C(=O)NC(CCc2ccccc2)C1=O` (stereo unspecified) gave a solubility (kinetic) of 7.6 µg/mL (≈ 20 µM). For the molecule `CC(C)C1CC(CCN)(c2ccccc2)CCO1.O=C(O)C(=O)O` (stereo unspecified), the kinetic solubility is > 50.6 µg/mL. Then `COc1ccc(N2C(=O)CC(C3CCCO3)C2=O)cc1` (stereo unspecified), with > 41.3 µg/mL; and `CC1=C(C)CC(C(=O)Nc2nccs2)C(C(=O)O)C1` (stereo unspecified), with 40.6 µg/mL (≈ 145 µM); and `Cc1cc2nc(-c3ccc[nH]c3=O)n(Cc3ccccc3F)c2cc1C`, with 0.4 µg/mL (≈ 1.15 µM). The result for `CN(CC(O)Cn1c2ccccc2c2ccccc21)S(C)(=O)=O` (stereo unspecified) reads > 49.9 µg/mL; that for `CC(NC(=O)CNC(=O)C1CCCCC1)c1cccc(Cl)c1` (stereo unspecified), 42.6 µg/mL (≈ 132 µM); that for `O=C1CSC(=S)N1`, > 20 µg/mL. The result for `CCOC(=O)/C=C/C(=O)OCC(=O)Nc1cccc(Br)c1` reads 13.8 µg/mL (≈ 38.7 µM); that for `CCCCOc1cc(C(=O)NCCN(CC)CC)c2ccccc2n1`, > 51.5 µg/mL. In the case of `CC(C)c1cc(=O)[nH]c(SCC(=O)NC2CCCC2)n1`, the kinetic solubility was > 44.3 µg/mL. The result for `C/C(N)=C(/C#N)C(=O)COC(=O)c1cc2c(s1)CCCC2` reads 2.2 µg/mL (≈ 7.23 µM); that for `COc1ccc(Cl)cc1NC(=O)NCCN1CCNC1=O`, 43.9 µg/mL (≈ 140 µM); that for `O=C(CN1C(=O)COc2ccc(Cl)cc21)N1CCOCC1`, > 46.6 µg/mL. With `Cc1ccc(NC(=O)C2COc3ccccc3O2)cc1C` (stereo unspecified), the kinetic solubility stood at 14.5 µg/mL (≈ 51.2 µM). Then `CC(C)[C@H](NS(=O)(=O)c1cccc(C(F)(F)F)c1)C(=O)OCC(=O)NC(=O)NCc1ccco1`, with 13.4 µg/mL (≈ 26.5 µM); and `C=C(C)c1cccc(C(C)(C)NC(=O)NCCN(CC)CC)c1`, with 44 µg/mL (≈ 139 µM). The result for `CCN(CCO)C(=S)Nc1cc(S(=O)(=O)N(C)C)ccc1C` reads > 51.8 µg/mL; that for `Cc1onc(-c2ccccc2)c1C(=O)/C=C/N(C)C`, 36.4 µg/mL (≈ 142 µM); that for `O=C(O)C(Cc1ccccc1)n1c(=S)[nH]c2ccccc2c1=O` (stereo unspecified), > 49 µg/mL.

Consider `Cc1ccc(-c2cc(-c3ccccc3)nc(N)c2C#N)o1`, for which the solubility (kinetic) is < 0.2 µg/mL. For the molecule `CN(C)NC(=S)NC1(C)CCS(=O)(=O)C1` (stereo unspecified), the kinetic solubility was > 37.7 µg/mL.

With `O=C(Cn1c(=O)oc2ccccc21)Nc1ccc(F)c(F)c1`, the kinetic solubility came out at 7.9 µg/mL (≈ 26 µM). Then `O=C(c1ccc(Cl)cc1)N1CCN(c2cccc3[nH]ccc23)CC1`, with 35.6 µg/mL (≈ 105 µM). Take `c1cc(OCCCN2CCCCC2)ccc1CN1CCCCC1`: the solubility (kinetic) turned out to be 44.7 µg/mL (≈ 141 µM).

Consider `Cc1nc2ccccc2c(=O)n1-c1cc(F)ccc1F`, for which the solubility (kinetic) was > 40.8 µg/mL. Then `COC(=O)C1CCN(C(=O)c2cc(=O)[nH]c3ccccc23)CC1`, with > 47.2 µg/mL. Then `Cc1ccc(S(=O)(=O)N2CCOCC2)cc1NC(=O)COC(=O)/C=C/c1ccc(F)cc1`, with 10.3 µg/mL (≈ 22.3 µM); and `O=C(O)c1ccccc1S(=O)(=O)CC(=O)N1CCCCC1`, with > 46.7 µg/mL; and `CCn1c(SCC#N)nc2cc(S(=O)(=O)N3CCOCC3)ccc21`, with > 55 µg/mL. For the molecule `CC(=O)/C=C(\C)Nc1c(C)n(C)n(-c2ccccc2)c1=O`, the kinetic solubility was > 42.8 µg/mL. For the molecule `CC(=Nc1ccccc1N)c1c(O)n(C)c(=O)n(C)c1=O`, the solubility (kinetic) worked out at 3.6 µg/mL (≈ 12.5 µM). Then `Cc1ccc(NC(=O)c2ccc(Cl)c(S(=O)(=O)NCc3ccco3)c2)c(O)c1`, with 7.3 µg/mL (≈ 17.3 µM); and `CCN(CCO)c1ncnc2onc(-c3ccc(F)cc3)c12`, with > 45.3 µg/mL; and `Oc1ccc(N2CCN(Cc3nc4ccccc4[nH]3)CC2)cc1`, with > 46.3 µg/mL. The result for `CCc1ccc(Oc2ncnc(N)c2[N+](=O)[O-])cc1` reads 5 µg/mL (≈ 19.2 µM); that for `CCn1c(CN(C)c2ccccc2)nc2ccccc21`, > 39.8 µg/mL. On to `C=CCNC(=O)CN1N=C(c2ccc(C)cc2)CCC1=O`, for which the kinetic solubility was > 42.8 µg/mL. Consider `O=C(O)[C@H](Cc1ccccc1)Nc1ccc([N+](=O)[O-])cn1`, for which the kinetic solubility is > 43.1 µg/mL. As to `Cc1ccc(C)c(CN2C(=O)NC3(CCCCCC3)C2=O)c1`, the solubility (kinetic) amounted to 3.7 µg/mL (≈ 12.3 µM). Regarding `CC1Cc2ccccc2N1Cc1cccc([N+](=O)[O-])c1` (stereo unspecified), the solubility (kinetic) was 3.6 µg/mL (≈ 13.4 µM). `Cc1ccc(NCCC(=O)c2cccs2)cc1`: the kinetic solubility came out at 17.9 µg/mL (≈ 73 µM). This solubility kinetic lies about 5-fold higher than the previous one.

For `COc1ccc(NS(=O)(=O)c2cc(NC(=O)[C@H](C)NC(N)=O)ccc2N2CCCC2)cc1`, the kinetic solubility was > 69.2 µg/mL.

For `COc1ccc(C(=O)Nc2ccc(N3CCCC3)cc2)cc1Br`, the solubility (kinetic) was < 0.4 µg/mL. Then `CCN(CC)C(=O)Nc1ccc(Br)cc1`, with > 40.7 µg/mL. Turning to `COc1ccc(Cc2n[nH]c(=S)o2)cc1`, the solubility (kinetic) is > 33.3 µg/mL.

The molecule `CC(=O)Nc1ccc(-c2csc(NC(=O)CCNC(=O)c3ccco3)n2)cc1` displayed a solubility (kinetic) of 11.7 µg/mL (≈ 29.4 µM). The result for `CC1(C)CSC(=NCCc2ccccc2)N1` reads > 35.2 µg/mL; that for `O=C(O)CC1(CC(=O)Nc2cc(F)ccc2Cl)CCCCC1`, > 49.2 µg/mL. Turning to `O=C1C(Cc2ccc(O)cc2)NC(=S)N1Cc1ccccc1` (stereo unspecified), the solubility (kinetic) is > 46.9 µg/mL. In turn, `Cc1ccc(-c2csc(NC(=O)c3c(C)noc3C)n2)cc1C` yielded a kinetic solubility of 1.7 µg/mL (≈ 5.19 µM). In turn, `N#Cc1c(N)n(-c2ccc(N)cc2)c2nc3ccccc3nc12` showed a kinetic solubility of 1.2 µg/mL (≈ 4 µM). The solubility kinetic values of the last two molecules are within 1.5-fold of each other. The result for `Cc1cc(C)c2cc(C(=O)N(C)C3CCN(C)CC3)[nH]c2c1` reads 21 µg/mL (≈ 70.1 µM); that for `CC(C)Cn1c(SCC(=O)O)nnc1-c1cccc(S(=O)(=O)N2CCOCC2)c1`, > 66.1 µg/mL; that for `CC(NC(=O)C(C)N1C(=O)c2ccccc2C1=O)c1ccccc1` (stereo unspecified), > 48.4 µg/mL. Then `Cl.O=C(Nc1cccc(Cl)c1)NC1CCN(C2CCCCC2)C1` (stereo unspecified), with > 53.7 µg/mL. The result for `NS(=O)(=O)c1ccc(NC(=O)Nc2ccccc2)cc1` reads 42.8 µg/mL (≈ 147 µM); that for `CCNS(=O)(=O)c1ccc(CCC(=O)N2CCCC2)cc1`, > 46.6 µg/mL; that for `CC(NS(=O)(=O)c1ccc(Cl)cc1)C(=O)N1CCOCC1` (stereo unspecified), 39.7 µg/mL (≈ 119 µM). `CNS(=O)(=O)Cc1ccc2[nH]cc(CCN(C)C)c2c1`: the kinetic solubility was determined as 40.3 µg/mL (≈ 136 µM).

Values taken from PubChem BioAssay AID1996.
